Common to all, as to assay: growth of human tumour cells (NCI), 48 h
Experiment [1] concerns UO-31.
In experiment [2] the test system is SF-539.
The subject of experiment [3] is KM12.
In experiment [4] the test system is HCT-15.
Experiment [5] relates to HCT-116.
In experiment [6] the test system is OVCAR-4.
In experiment [7] the test system is NCI-H23.
The subject of experiment [8] is COLO 205.
Experiment [9] has as its system SK-MEL-5.
The subject of experiment [10] is MOLT-4.
Experiment [11] has as its system HCC 2998.
In experiment [12] the test system is EKVX.
In experiment [13] the test system is A549.
For experiment [14], the system named is NCI-H460.
Experiment [15] relates to M19-MEL.
In experiment [16] the test system is UACC-257.
Experiment [17] relates to SK-MEL-2.
Experiment [18] relates to RXF 393.
The test system of experiment [19] is SK-MEL-28.
For experiment [20], the system named is SNB-78.

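Dose response: 5 concentrations. Exposure: 48 h. Format: 96-well plates. Endpoint: linear interpolation; highest concentration if not reached. GI50 marks 50% less growth.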 Calls of active or inactive are those of the source. Rule as the data show it: active = GI50 up to about 1.1 µM and inactive = higher.

As to `Cc1cc(C)c(C2=NO[C@@H]3[C@H]2C(=O)C=C2N(Cc4ccccc4)CCO[C@@]23O)c(C)c1`, the GI50 is > 100 µM (inactive) in experiment [1]; > 100 µM (inactive) in experiment [2]; > 100 µM (inactive) in experiment [3]; more than 100 µM in experiment [4]; > 100 µM (inactive) in experiment [5]; > 100 µM (inactive) in experiment [6]. The GI50 in [7], in experiment [8], in experiment [9], in [10], in experiment [11] and in [12] was > 100 µM (inactive) in each case. For the same compound, the GI50 in [13], in experiment [14], in experiment [15], in experiment [16], in experiment [17] and in experiment [18] was > 100 µM (inactive) each time. Also, the GI50 in experiment [19] and in experiment [20] was > 100 µM (inactive) throughout.

The values are drawn from ChEMBL document CHEMBL1201862, “PubChem BioAssay data set” (2004).
